Measurements: ChEMBL document CHEMBL3714729, “Heterocyclic compounds for the inhibition of pask” (2012)

Legend:
[1] = biological target: T1, PAS domain-containing serine/threonine-protein kinase (Homo sapiens, UniProt Q96RG2); assay: Inhibition of purified full-length human PASK expressed in insect cells using MBP protein substrate incubated for 10 mins before ATP addition and measured after 1 hr by kinase-Glo luminescent kinase assay
[2] = biological target: T1, PAS domain-containing serine/threonine-protein kinase; assay: Inhibition of purified human PASK kinase domain expressed in insect cells using MBP protein substrate incubated for 10 mins before ATP addition and measured after 1 hr by kinase-Glo luminescent kinase assay
[3] = biological target: T1, PAS domain-containing serine/threonine-protein kinase; assay: Inhibition of N-terminal GST-tagged human recombinant PASK kinase domain (879 to 1323 residues) expressed in insect cells using MBP protein substrate incubated for 120 mins in presence of [33P]ATP by scintillation counting based radiochemical assay
[4] = biological target: T1, PAS domain-containing serine/threonine-protein kinase; assay: Inhibition of human recombinant PASK using Ulight-peptide substrate incubated for 2 hrs by TR-FRET assay
[5] = biological target: Casein kinase II subunit alpha' (Homo sapiens, UniProt P19784); assay: Inhibition of GST-tagged full-length purified human CK2a2 using RRRDDDSDDD substrate incubated for 120 mins in presence of [33P]ATP by scintillation counting based biochemical assay
Chain of Casein kinase II subunit alpha' (P19784 whole entry): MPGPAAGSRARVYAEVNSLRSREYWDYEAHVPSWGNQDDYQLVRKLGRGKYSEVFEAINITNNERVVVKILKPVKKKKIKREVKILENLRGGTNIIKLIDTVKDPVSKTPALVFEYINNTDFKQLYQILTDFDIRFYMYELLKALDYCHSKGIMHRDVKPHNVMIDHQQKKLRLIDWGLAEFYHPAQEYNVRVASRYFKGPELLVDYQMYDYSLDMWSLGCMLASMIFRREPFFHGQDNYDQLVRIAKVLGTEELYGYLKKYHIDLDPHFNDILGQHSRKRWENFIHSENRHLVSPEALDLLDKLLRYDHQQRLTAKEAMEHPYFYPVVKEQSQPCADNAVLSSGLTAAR

T1 sequence (Q96RG2 whole entry, the tested form may be a part): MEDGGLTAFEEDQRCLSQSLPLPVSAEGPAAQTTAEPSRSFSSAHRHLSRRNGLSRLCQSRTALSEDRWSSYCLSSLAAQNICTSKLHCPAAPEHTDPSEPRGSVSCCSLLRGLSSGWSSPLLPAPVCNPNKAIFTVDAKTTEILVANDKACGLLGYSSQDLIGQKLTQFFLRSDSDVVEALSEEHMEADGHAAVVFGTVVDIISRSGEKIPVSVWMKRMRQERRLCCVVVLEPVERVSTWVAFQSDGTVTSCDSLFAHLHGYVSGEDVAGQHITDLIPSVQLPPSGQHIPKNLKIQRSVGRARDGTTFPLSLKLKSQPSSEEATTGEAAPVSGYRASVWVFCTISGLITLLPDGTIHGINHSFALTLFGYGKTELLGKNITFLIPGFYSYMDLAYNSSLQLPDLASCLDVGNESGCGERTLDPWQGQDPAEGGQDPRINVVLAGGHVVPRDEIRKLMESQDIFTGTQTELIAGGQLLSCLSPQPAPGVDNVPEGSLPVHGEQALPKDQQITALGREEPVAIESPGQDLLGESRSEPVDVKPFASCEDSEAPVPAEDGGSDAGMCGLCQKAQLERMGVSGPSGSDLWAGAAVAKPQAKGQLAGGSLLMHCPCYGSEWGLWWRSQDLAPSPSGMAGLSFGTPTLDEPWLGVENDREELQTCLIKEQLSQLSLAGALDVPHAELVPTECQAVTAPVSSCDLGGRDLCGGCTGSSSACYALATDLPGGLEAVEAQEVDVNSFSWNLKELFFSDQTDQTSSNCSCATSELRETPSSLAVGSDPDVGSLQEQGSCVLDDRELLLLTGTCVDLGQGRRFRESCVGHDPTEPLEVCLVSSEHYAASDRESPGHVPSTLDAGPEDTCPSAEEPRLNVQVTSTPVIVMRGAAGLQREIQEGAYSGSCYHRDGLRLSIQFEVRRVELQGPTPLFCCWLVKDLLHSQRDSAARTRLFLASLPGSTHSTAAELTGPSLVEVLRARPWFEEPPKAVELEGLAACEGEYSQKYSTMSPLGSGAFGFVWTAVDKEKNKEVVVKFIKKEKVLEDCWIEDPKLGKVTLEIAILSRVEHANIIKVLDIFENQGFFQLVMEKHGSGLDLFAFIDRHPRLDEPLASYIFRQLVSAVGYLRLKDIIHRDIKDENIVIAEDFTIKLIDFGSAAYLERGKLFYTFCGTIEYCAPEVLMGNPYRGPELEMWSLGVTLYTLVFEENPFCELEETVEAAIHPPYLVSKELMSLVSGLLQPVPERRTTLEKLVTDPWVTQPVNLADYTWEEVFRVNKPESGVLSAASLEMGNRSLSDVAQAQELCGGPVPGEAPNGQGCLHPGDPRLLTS

| Structure (SMILES) | IC50 [1] [µM] | IC50 [2] [µM] | IC50 [3] [µM] | IC50 [4] [µM] | IC50 [5] [µM] |
| --- | --- | --- | --- | --- | --- |
| Cc1nn2c(=O)cc(-c3ccccc3)[nH]c2c1-c1ccc(F)cc1 | ≥ 10 | ≥ 10 |  |  |  |
| O=c1cc(-c2ccccc2)[nH]c2c(-c3cccc4ccccc34)c(Cc3ccccc3)nn12 | ≥ 10 | ≥ 10 |  |  |  |
| Cc1cc(=O)n2nc(-c3cccc(Br)c3)cc2[nH]1 | ≤ 10 |  |  |  |  |
| O=c1c2c([nH]c3c(-c4ccc(Cl)cc4)c(Cc4ccccc4)nn13)CCC2 | ≥ 10 | ≥ 10 |  |  |  |
| COc1ccc(-c2cc(=O)n3nc(C)c(-c4ccccc4)c3[nH]2)cc1 | ≤ 10 | ≤ 10 |  |  |  |
| Cc1cc(=O)n2nc(-c3ccc(Cl)cc3)cc2[nH]1 | ≤ 10 |  |  |  |  |
| CCCc1cc(=O)n2nc(Cc3ccccc3)c(-c3ccc(Cl)cc3)c2[nH]1 | ≥ 10 | ≥ 10 |  |  |  |
| Cc1nn2c(=O)c3c([nH]c2c1-c1ccc(Cl)cc1)CCC3 | ≥ 10 | ≥ 10 |  |  |  |
| Cc1nn2c(=O)cc(-c3ccc(Cl)cc3)[nH]c2c1-c1ccccc1 | ≤ 10 | ≤ 10 |  |  |  |
| COc1ccc(-c2c(C)nn3c(=O)cc(Cc4ccccc4)[nH]c23)cc1 | ≥ 10 | ≥ 10 |  |  |  |
| COCc1cc(=O)n2nc(Cc3ccccc3)c(-c3ccc(Cl)cc3)c2[nH]1 | ≥ 10 | ≥ 10 |  |  |  |
| O=c1cc(Cc2ccccc2)[nH]c2c(-c3ccccc3)c(-c3ccccc3)nn12 | ≥ 10 | ≥ 10 |  |  |  |
| COc1ccc(Cc2nn3c(=O)cc(-c4ccccc4)[nH]c3c2-c2ccccc2)cc1 | ≥ 10 | ≥ 10 |  |  |  |
| COc1ccc(Cc2nn3c(=O)cc(C)[nH]c3c2-c2ccccc2)cc1 | ≥ 10 | ≥ 10 |  |  |  |
| CCc1c(C)[nH]c2c(-c3ccccc3)c(Cc3ccc(OC)cc3)nn2c1=O | ≥ 10 | ≥ 10 |  |  |  |
| Cc1nn2c(=O)c(C#N)c(-c3ccccc3)[nH]c2c1-c1ccccc1 | ≥ 10 |  |  |  |  |
| Cc1[nH]c2c(-c3ccc(Cl)cc3)cnn2c(=O)c1Cc1ccccc1 | ≤ 10 | ≤ 10 |  |  |  |
| O=c1c2c([nH]c3c(-c4ccccc4)c(-c4ccccc4)nn13)CCC2 | ≥ 10 |  |  |  |  |
| COc1ccc(-c2c(Cc3ccccc3)nn3c(=O)cc(-c4ccccc4)[nH]c23)cc1 | ≥ 10 |  |  |  |  |
| Cc1nn2c(=O)cc(-c3ccc([N+](=O)[O-])cc3)[nH]c2c1-c1ccc(Cl)cc1 | ≤ 10 | ≤ 10 |  |  |  |

| Structure (SMILES) | IC50 [1] [µM] | IC50 [2] [µM] | IC50 [3] [µM] | IC50 [4] [µM] | IC50 [5] [µM] |
| --- | --- | --- | --- | --- | --- |
| CCCc1cc(=O)n2nc(C)c(-c3ccc(Cl)cc3)c2[nH]1 | ≥ 10 | ≥ 10 |  |  |  |
| Cc1cc(=O)n2nc(C)c(-c3ccc(Cl)cc3)c2[nH]1 | ≥ 10 | ≥ 10 |  |  |  |
| COc1ccc(-c2nn3c(=O)cc(C(C)C)[nH]c3c2-c2ccccc2)cc1 | ≥ 10 | ≥ 10 |  |  |  |
| COc1c(-c2cc(=O)n3nc(O)c(-c4ccccn4)c3[nH]2)ccc2c1OCO2 |  |  | ≤ 10 | ≤ 10 | ≤ 10 |
| O=c1cc(-c2ccc(Cl)c(Cl)c2)[nH]c2c(-c3ccccn3)cnn12 |  |  | ≤ 10 | ≤ 10 | ≤ 10 |
| O=c1cc(-c2ccc3c(c2)OCO3)[nH]c2c(-c3ncccc3F)cnn12 |  |  | ≤ 10 | ≤ 10 | ≤ 10 |
| O=c1cc(-c2ccc3c(c2)CCO3)[nH]c2c(-c3cccnc3)c(O)nn12 |  |  | ≤ 10 | ≤ 10 | ≤ 10 |
| O=c1cc(-c2ccc3[nH]nnc3c2)[nH]c2c(-c3ccc(Cl)cc3)cnn12 |  |  | ≤ 10 | ≤ 10 | ≤ 10 |
| Nc1nn2c(=O)cc(-c3ccc4[nH]nnc4c3)[nH]c2c1-c1ccc(Cl)cc1 |  |  | ≤ 10 | ≤ 10 | ≤ 10 |
| O=c1cc(-c2ccc3c(c2)OCCO3)[nH]c2c(-c3ccccc3)c(C(F)(F)F)nn12 |  |  | ≤ 10 | ≤ 10 | ≤ 10 |
| Nc1nn2c(=O)cc(-c3ccc4c(c3)OCCO4)[nH]c2c1-c1ccccn1 |  |  | ≤ 10 | ≤ 10 | ≤ 10 |
| O=c1cc(-c2ccc(F)cc2)[nH]c2c(-c3ccccn3)c(O)nn12 |  |  | ≤ 10 | ≤ 10 | ≥ 10 |
| COCc1cc(=O)n2nc(-c3ccc(Cl)cc3)cc2[nH]1 | ≥ 10 | ≥ 10 |  |  |  |
| Cc1nn2c(=O)cc(-c3ccccc3)[nH]c2c1-c1ccc(Cl)cc1 | ≤ 10 | ≤ 10 |  |  |  |
| CCc1nn2c(=O)cc(-c3ccc4[nH]nnc4c3)[nH]c2c1-c1ccccn1 |  |  | ≤ 10 | ≤ 10 | ≤ 10 |
| CC(=O)Nc1nn2c(=O)cc(-c3ccc4c(c3)OCO4)[nH]c2c1-c1ccccn1 |  |  | ≤ 10 | ≤ 10 | ≤ 10 |
| O=c1cc(-c2ccccc2)[nH]c2c(-c3ccccc3)c(Cc3ccccc3)nn12 | ≥ 10 |  |  |  |  |
| COc1ccc(-c2cc(=O)n3nc(C)c(-c4ccc(F)cc4)c3[nH]2)cc1 | ≤ 10 | ≤ 10 |  |  |  |
| COCc1cc(=O)n2nc(Cc3ccccc3)c(-c3ccc(OC)cc3)c2[nH]1 | ≥ 10 | ≥ 10 |  |  |  |
| CCCNC(=O)c1c(N)nn2c(=O)cc(-c3ccc4[nH]nc(C)c4c3)[nH]c12 |  |  | ≤ 10 | ≤ 10 | ≤ 10 |

| Structure (SMILES) | IC50 [1] [µM] | IC50 [2] [µM] | IC50 [3] [µM] | IC50 [4] [µM] | IC50 [5] [µM] |
| --- | --- | --- | --- | --- | --- |
| O=c1cc(-c2ccc(-c3ncco3)cc2)[nH]c2c(-c3ccccn3)cnn12 |  |  | ≤ 10 | ≤ 10 | ≥ 10 |
| COc1cc2[nH]nnc2cc1-c1cc(=O)n2nc(N)c(-c3ccccn3)c2[nH]1 |  |  | ≤ 10 | ≤ 10 | ≥ 10 |
| Cc1ccc(-c2cc(=O)n3nc(C)c(-c4ccccc4)c3[nH]2)cc1 | ≥ 10 | ≥ 10 |  |  |  |
| CCCNC(=O)c1c(O)nn2c(=O)cc(-c3ccc4c(c3)OCO4)[nH]c12 |  |  | ≤ 10 | ≤ 10 | ≤ 10 |
| COc1ccccc1-c1cc(=O)n2ncc(-c3ccccn3)c2[nH]1 |  |  | ≤ 10 | ≤ 10 | ≤ 10 |
| COc1ccc(-c2cc(=O)n3ncc(-c4ccccn4)c3[nH]2)cc1OC |  |  | ≤ 10 | ≤ 10 | ≤ 10 |
| O=c1cc(-c2ccccc2)[nH]c2c(-c3ccc(Cl)cc3)c(Cc3ccccc3)nn12 | ≥ 10 | ≥ 10 |  |  |  |
| Nc1nn2c(=O)cc(-c3ccc4[nH]ncc4c3)[nH]c2c1-c1ccccn1 |  |  | ≤ 10 | ≤ 10 | ≤ 10 |
| CCCNC(=O)c1cnn2c(=O)cc(-c3ccc4[nH]nnc4c3)[nH]c12 |  |  | ≤ 10 | ≤ 10 | ≤ 10 |
| O=c1cc(-c2ccc([N+](=O)[O-])cc2)[nH]c2c(-c3ccc(Cl)cc3)c(Cc3ccccc3)nn12 | ≤ 10 | ≤ 10 |  |  |  |
| CCCNC(=O)c1c(N)nn2c(=O)cc(-c3ccc(Cl)cc3)[nH]c12 |  |  | ≤ 10 | ≤ 10 | ≤ 10 |
| CCc1c(C)[nH]c2c(-c3ccc(Cl)cc3)c(C)nn2c1=O | ≥ 10 | ≥ 10 |  |  |  |
| O=c1cc(Cc2ccccc2)[nH]c2c(-c3ccccc3)c(Cc3ccccc3)nn12 | ≥ 10 | ≥ 10 |  |  |  |
| Nc1nn2c(=O)cc(-c3ccc(F)cc3)[nH]c2c1-c1ccccn1 |  |  | ≤ 10 | ≤ 10 | ≤ 10 |
| COc1ccccc1-c1cc(=O)n2nc(C)c(-c3ccccc3)c2[nH]1 | ≤ 10 | ≤ 10 |  |  |  |
| COc1c(-c2cc(=O)n3ncc(-c4ccccn4)c3[nH]2)ccc2[nH]nnc12 |  |  | ≤ 10 | ≤ 10 | ≤ 10 |
| CCCNC(=O)c1cnn2c(=O)cc(-c3ccc4c(c3)OCCO4)[nH]c12 |  |  | ≤ 10 | ≤ 10 | ≤ 10 |
| COc1ccc(-c2c(C)nn3c(=O)cc(-c4ccccc4)[nH]c23)cc1 | ≥ 10 |  |  |  |  |
| COc1ccc(-c2cc(=O)n3ncc(-c4cccnc4)c3[nH]2)cc1 |  |  | ≤ 10 | ≤ 10 | ≤ 10 |
